Measured values as given in patent publication US20260137706A1, “METHODS OF TREATING INFLAMMATORY DISEASES” (INTERLINE THERAPEUTICS, INC., priority 2023, published 2026).

What was measured:
[1] = target: T1, GST-RIPK2 fusion protein (human RIPK2, amino acids 1-310) (Homo sapiens, UniProt O43353); assay: RIPK2 binding competition assay (TR-FRET, Tracer 199 displacement); details: 10 nM Tracer 199, 1 nM GST-RIPK2, read-out: RIPK2 IC50
T1 construct: made in house; host or cells: baculovirus infected Sf9 cells
T1 sequence (O43353 1-310): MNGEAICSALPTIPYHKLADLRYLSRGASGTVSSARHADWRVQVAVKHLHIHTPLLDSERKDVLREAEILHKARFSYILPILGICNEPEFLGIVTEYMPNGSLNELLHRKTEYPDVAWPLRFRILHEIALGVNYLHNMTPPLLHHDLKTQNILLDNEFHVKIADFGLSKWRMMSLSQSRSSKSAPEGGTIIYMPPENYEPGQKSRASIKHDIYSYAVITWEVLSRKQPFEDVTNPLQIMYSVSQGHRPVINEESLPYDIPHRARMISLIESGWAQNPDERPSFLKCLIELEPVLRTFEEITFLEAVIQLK
In short: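 GST-RIPK2 (human aa 1-310, Sf9-expressed; final 1 nM) with Tracer 199 (final 10 nM) and Tb-anti-GST (final 0.5 nM) in Tris pH 7.5 buffer, 45 min at 22 °C. TR-FRET 665/620 nm ratio after 337 nm excitation; normalized to no-inhibitor (0%) and no-protein (−100%), giving IC50.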

[2] = target: T2, binding of His-XIAP(BIR2)-avi fusion protein to GST-RIPK2 fusion protein (RIPK2/XIAP) (Homo sapiens, UniProt O43353); assay: RIPK2-XIAP binding competition PPI assay (TR-FRET); details: RIPK2/XIAP binding competition PPI assay; for Emax: Amax, read-out: PPI Amax bin; for IC50: read-out: PPI IC50 bin
T2 construct: made in house; host or cells: baculovirus infected Sf9 cells
T2 sequence (O43353 1-310 limits assumed): as the sequence (O43353 1-310) above
In short: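 Compounds (in DMSO, 100-fold stock) incubated 120 min at 23 °C with 1 nM GST-RIPK2 (aa 1-310) and 25 nM His-XIAP(BIR2 aa 152-231)-avi, plus anti-His-XL665 and anti-GST-Tb, in pH 7.5 Tris buffer. Read-out: 665/520 nm emission ratio. Normalized to no-inhibitor (0%) and 50 nM GSK583 (−100%); Amax binned A–D.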

[3] = test system: NF-κB pathway (SEAP) in THP1-Dual cells; assay: THP-1 Dual cell SEAP assay (L18-MDP stimulated); format: cell-based; details: Homo sapiens, THP1-Dual, read-out: NF-κB THP1 IC50 bin
In short: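 THP1-Dual cells (~25,000/well) were preincubated 30 min with serially diluted compounds, then stimulated with 10 ng/mL L18-MDP (final) for 20-24 h at 37 °C. Supernatant SEAP was read with QUANTI-Blue at OD 620-655 nm after 2 h. IC50 came from non-linear fits of % inhibition versus DMSO/L18-MDP controls after media-blank subtraction.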

| Compound | IC50 [1] | Emax [2] | IC50 [2] | IC50 [3] |
| --- | --- | --- | --- | --- |
| CC(C)(C)S(=O)(=O)c1cn2c(-c3cnc4[nH]cc(Cl)c4c3)cnc2cc1OCCO [Example 219, 2-((6-(tert-butylsulfonyl)-3-(3-chloro-1H-pyrrolo[2,3-b]pyridin-5-yl)imidazo[1,2-a]pyridin-7-yl)oxy)ethan-1-ol] | 1 to 2.5 nM | > 80% | 1 to 2.5 nM | 50 to 250 nM |
| COCCOc1cc2ncc(-c3cc(F)c(N)nc3F)n2cc1S(=O)(=O)C(C)(C)C [Example 16, 5-(6-(tert-butylsulfonyl)-7-(2-methoxyethoxy)imidazo[1,2-a]pyridin-3-yl)-3,6-difluoropyridin-2-amine] | 2.5 to 20 nM | > 80% | 2.5 to 20 nM | 250 to 1000 nM |
| C[C@H](CO)COc1cc2ncc(-c3cc(Cl)c(N)nc3F)n2cc1S(=O)(=O)C(C)(C)C [Example 198, (R)-3-((3-(6-amino-5-chloro-2-fluoropyridin-3-yl)-6-(tert-butylsulfonyl)imidazo [1,2-a]pyridin-7-yl)oxy)-2-methylpropan-1-ol] | 1 to 2.5 nM | > 80% | < 1 nM | 50 to 250 nM |
| CN1CCN(CCOc2cc3ncc(-c4cc(F)c(N)nc4F)n3cc2S(=O)(=O)C(C)(C)C)CC1 [Example 19, 5-(6-(tert-butylsulfonyl)-7-(2-(4-methylpiperazin-1-yl)ethoxy)imidazo[1,2-a]pyridin-3-yl)-3,6-difluoropyridin-2-amine] | 2.5 to 20 nM | > 80% | 2.5 to 20 nM | 250 to 1000 nM |
| COc1cc2ncc(-c3ccc4c(c3)nc(N)n4C)n2cc1S(=O)(=O)C(C)(C)C [Example 115, 5-(6-(tert-butylsulfonyl)-7-methoxyimidazo[1,2-a]pyridin-3-yl)-1-methyl-1H-benzo[d]imidazol-2-amine] | > 20 nM | 55 to 80% | > 20 nM | > 1000 nM |
| CC(C)(C)S(=O)(=O)c1cn2c(-c3cc(F)c(N)nc3F)cnc2cc1OCC1(CO)COC1 [Example 49, (3-(((3-(6-amino-2,5-difluoropyridin-3-yl)-6-(tert-butylsulfonyl)imidazo[1,2-a]pyridin-7-yl)oxy)methyl)oxetan-3-yl)methanol] | 2.5 to 20 nM | > 80% | 2.5 to 20 nM | 250 to 1000 nM |
| CC(C)(C)S(=O)(=O)c1cn2c(-c3cc(F)c(N)nc3F)cnc2cc1OC[C@H]1C[C@H](O)C1 [Example 197, (1r,3r)-3-(((3-(6-amino-2,5-difluoropyridin-3-yl)-6-(tert-butylsulfonyl)imidazo [1,2-a]pyridin-7-yl)oxy)methyl) cyclobutan-1-ol] | < 1 nM | > 80% | < 1 nM | 50 to 250 nM |
| COc1c(F)cc(-c2cnc3cc(OC[C@@H](C)CO)c(S(=O)(=O)C(C)(C)C)cn23)cc1NS(C)(=O)=O [Example 182, (S)-N-(5-(6-(tert-butylsulfonyl)-7-(3-hydroxy-2-methylpropoxy)imidazo[1,2-a]pyridin-3-yl)-3-fluoro-2-methoxyphenyl)methanesulfonamide] | < 1 nM | 55 to 80% | < 1 nM | < 50 nM |
| C[C@@H](O)COc1cc2ncc(-c3cc(F)c(N)nc3F)n2cc1S(=O)(=O)C(C)(C)C [Example 171, (R)-1-((3-(6-amino-2,5-difluoropyridin-3-yl)-6-(tert-butylsulfonyl)imidazo[1,2-a]pyridin-7-yl)oxy)propan-2-ol] | 2.5 to 20 nM | > 80% | 2.5 to 20 nM | 50 to 250 nM |
| CC(C)(C)S(=O)(=O)c1cc2c(-c3cc(Cl)c(N)nc3F)cnn2cc1OCC(O)CO (stereo not shown) [Example 247, 3-((3-(6-amino-5-chloro-2-fluoropyridin-3-yl)-5-(tert-butylsulfonyl)pyrazolo [1,5-a]pyridin-6-yl)oxy)propane-1,2-diol] | 1 to 2.5 nM | > 80% | 1 to 2.5 nM | 50 to 250 nM |
| COc1cc2ncc(-c3cc(F)c(N)nc3F)n2cc1S(=O)(=O)C(C)(C)CCCO [Example 63, 4-((3-(6-amino-2,5-difluoropyridin-3-yl)-7-methoxyimidazo[1,2-a]pyridin-6-yl)sulfonyl)-4-methylpentan-1-ol] | 2.5 to 20 nM | > 80% | 2.5 to 20 nM | > 1000 nM |
| COc1cc2ncc(-c3cnc4c(c3)OCCN4C)n2cc1S(=O)(=O)C(C)(C)C [Example 123, 7-(6-(tert-butylsulfonyl)-7-methoxyimidazo[1,2-a]pyridin-3-yl)-4-methyl-3,4-dihydro-2H-pyrido[3,2-b][1,4]oxazine] | > 20 nM | 30 to 55% | > 20 nM | > 1000 nM |
| COc1cc2ncc(-c3cc(F)c(OC)c4[nH]cnc34)n2cc1S(=O)(=O)C(C)(C)C [Example 117, 4-(6-(tert-butylsulfonyl)-7-methoxyimidazo[1,2-a]pyridin-3-yl)-6-fluoro-7-methoxy-1H-benzo[d]imidazole] | 2.5 to 20 nM | 30 to 55% | 2.5 to 20 nM | 250 to 1000 nM |
| CC(C)(C)S(=O)(=O)c1cn2c(-c3cc(F)c(N)nc3F)cnc2cc1-c1cn[nH]c1 [Example 31, 5-(6-(tert-butylsulfonyl)-7-(1H-pyrazol-4-yl)imidazo[1,2-a]pyridin-3-yl)-3,6-difluoropyridin-2-amine] | 2.5 to 20 nM | > 80% | 2.5 to 20 nM | > 1000 nM |
| COc1cc2ncc(-c3cc(F)c(OC)c(NS(=O)(=O)c4cnc(O)nc4)c3)n2cc1S(=O)(=O)C(C)(C)C [Example 248, N-(5-(6-(tert-butylsulfonyl)-7-methoxyimidazo[1,2-a]pyridin-3-yl)-3-fluoro-2-methoxyphenyl)-2-hydroxypyrimidine-5-sulfonamide] | 2.5 to 20 nM | 55 to 80% | 2.5 to 20 nM | > 1000 nM |
| CC(C)(C)S(=O)(=O)c1cn2c(-c3cc4cc[nH]c4cc3F)cnc2cc1OCCO [Example 217, 2-((6-(tert-butylsulfonyl)-3-(6-fluoro-1H-indol-5-yl)imidazo[1,2-a]pyridin-7-yl)oxy)ethan-1-ol] | < 1 nM | 55 to 80% | < 1 nM | 50 to 250 nM |
| COc1cc2ncc(-c3cc(F)c(OC)c(NS(=O)(=O)CC4COC4)c3)n2cc1S(=O)(=O)C(C)(C)C [Example 160, N-(5-(6-(tert-butylsulfonyl)-7-methoxyimidazo[1,2-a]pyridin-3-yl)-3-fluoro-2-methoxyphenyl)-1-(oxetan-3-yl)methanesulfonamide] | < 1 nM | > 80% | < 1 nM | < 50 nM |
| COc1cc2ncc(-c3cc(F)c(OC)c(NS(=O)(=O)C4COC4)c3)n2cc1S(=O)(=O)C(C)(C)C [Example 142, N-(5-(6-(tert-butylsulfonyl)-7-methoxyimidazo[1,2-a]pyridin-3-yl)-3-fluoro-2-methoxyphenyl)oxetane-3-sulfonamide] | 1 to 2.5 nM | > 80% | 1 to 2.5 nM | 250 to 1000 nM |
| CC(C)(C)S(=O)(=O)c1cn2c(-c3cnc4[nH]cc(F)c4c3)cnc2cc1OCCO [Example 220, 2-((6-(tert-butylsulfonyl)-3-(3-fluoro-1H-pyrrolo[2,3-b]pyridin-5-yl)imidazo[1,2-a]pyridin-7-yl)oxy)ethan-1-ol] | < 1 nM | > 80% | < 1 nM | < 50 nM |
| CC(C)(C)C(C)(O)c1cn2c(-c3cc(F)c(N)nc3F)cnc2cc1OCCO (stereo not shown) [Example 189, 2-(3-(6-amino-2,5-difluoropyridin-3-yl)-7-(2-hydroxyethoxy)imidazo[1,2-a]pyridin-6-yl)-3,3-dimethylbutan-2-ol] | > 20 nM |  | > 20 nM | > 1000 nM |
| C[C@H](O)COc1cn2ncc(-c3cc(Cl)c(N)nc3F)c2cc1S(=O)(=O)C(C)(C)C [Example 46, (S)-1-((3-(6-amino-5-chloro-2-fluoropyridin-3-yl)-5-(tert-butylsulfonyl)pyrazolo[1,5-a]pyridin-6-yl)oxy)propan-2-ol] | 1 to 2.5 nM | > 80% | 1 to 2.5 nM | 50 to 250 nM |
| CC(C)(C)C(C)(O)c1cn2c(-c3cc(F)c(N)nc3F)cnc2cc1OCCO (single isomer, unassigned) [Example 295] | 2.5 to 20 nM | > 80% | 2.5 to 20 nM | > 1000 nM |
| COc1cc2ncc(-c3ccc4nc(N)sc4c3)n2cc1S(=O)(=O)C(C)(C)C [Example 95, 6-(6-(tert-butylsulfonyl)-7-methoxyimidazo[1,2-a]pyridin-3-yl)benzo[d]thiazol-2-amine] | 2.5 to 20 nM | < 30% | > 20 nM | > 1000 nM |
